This is an account of results in article PMC9230201, “Sustained Consumption of a Decaffeinated Green Coffee Nutraceutical Has Limited Effects on Phenolic Metabolism and Bioavailability in Overweight/Obese Subjects” (Nutrients, 2022).

Series [1] in a line: Urinary excretion of phenolic metabolites after intake of the GCPE nutraceutical. Particulars: for Cumulative urinary excretion, Total 0–24 h: urine, mean ± SEM, n = 9.
Series [2] in a line: Plasma pharmacokinetics of phenolic metabolites after intake of the GCPE nutraceutical (LC-MS-QToF). The conditions noted are these: for Cmax: mean ± SEM, n = 9.
Procedure: Participants attended the Human Nutrition Unit (HNU) at the Institute of Food Science, Technology and Nutrition (ICTAN-CSIC) on two consecutive days at the beginning of the intervention (week 0) and also on two consecutive days at the end of the study, after consuming daily two doses of the GCPE nutraceutical, providing 600 mg/d phenols, during two months (week 8). On each occasion, on the first visit day (Figure 1), subjects arrived at the HNU after an overnight (12 h) fast and provided a urine sample. A licensed health care professional placed an intravenous catheter in the subjects′ nondominant arm and collected a fasting blood sample (baseline, 0 h). Then, subjects drank the soluble GCPE nutraceutical dissolved in 200 mL of water. Subsequently, blood samples were collected in EDTA-coated tubes at 0.5, 1, 1.5, 2, 3, 4, 6, 8, 10, and 11 h. On the sampling days, volunteers remained at the HNU, where a (poly)phenol-free diet was provided. Half an hour after consuming the nutraceutical, volunteers ate a breakfast consisting of ham, cheese, white bread, and a yogurt. Lunch (paella, bread, and yogurt) and an afternoon snack (muffin and yogurt) were eaten 5 and 9 h, respectively, after consuming the nutraceutical. Water and isotonic beverages were freely available. Volunteers were instructed to eat a (poly)phenol-free dinner that night and to attend the HNU on the next day after a 12 h fast. Then, a final blood sample was obtained from the antecubital vein 24 h after consuming the nutraceutical. The same protocol was followed during visits at the end of the 8-week intervention. On each occasion, two days before each visit to the HNU, subjects consumed a low (poly)phenol diet free of foods containing hydroxycinnamates such as coffee, herbal teas, red wine, artichokes, whole grain cereals, vegetables, fruits and fruit juices, and dried fruits. Only banana, watermelon, cantaloupes, and potatoes were allowed.
Blood samples were immediately centrifuged (10 min, 3000 rpm, 4 °C) to obtain plasma. […] All biological samples were stored at −80 °C until analysis.
To extract plasma metabolites, 10 µL of 50% (v/v) aqueous formic acid, and 900 µL cold acetonitrile containing 50 µL of 10% (w/v) ascorbic acid were added to 400 µL defrosted plasma. Samples were vortexed and centrifuged (14,000 rpm, 10 min, 4 °C), repeating the extraction and combining the two supernatants, which were reduced to dryness under nitrogen [13]. Dried samples were resuspended in 150 µL of 0.1% aqueous formic acid (containing 10% acetonitrile acidified with 0.1% formic acid), centrifuged (15 min, 14,000 rpm, 4 °C), and the supernatant collected.
A reverse-phase Ascentis Express C18 (15 cm × 3 mm, 2.7 µm) column (Sigma-Aldrich Quimica, Madrid, Spain), preceded by a Supelco 55215-U guard column (3 mm × 5 mm, 2.7 µm), was used for separation. Mobile phase A was 0.1% formic acid in Milli-Q water, and mobile phase B was acetonitrile containing 0.1% formic acid at a 0.3 mL/min flow rate. […] Metabolites were identified based on their retention time using authentic standards when possible.
Where [3] appears, read: week 0, GCPE nutraceutical with 300 mg hydroxycinnamic acids.
[4] abbreviates: week 0, first peak where biphasic.
The mark [5] stands for this setting: week 8, GCPE nutraceutical with 300 mg hydroxycinnamic acids.
Where [6] appears, read: week 8, first peak where biphasic.

The structures appear in SMILES notation.

With `O=C(O)CNC(=O)c1cccc(O)c1` [3′-Hydroxyhippuric acid], the “Cumulative urinary excretion, Total 0–24 h” value is 32 ± 5 µmol in series [1] (week 0); 32 µmol in series [1] (week 0, listed as 3′-hydroxyhippuric acid); 46 ± 8 µmol in series [1] (week 8); 46 µmol in series [1] (week 8, listed as 3′-hydroxyhippuric acid). The Amount excreted in urine, TOTAL in series [1] (week 0, Table S5 total) amounted to 32 ± 5 µmol; in series [1] (week 8, Table S6 total), 46 ± 8 µmol. For the same compound, the Amount excreted in urine, 0- 3 h stood at 3 ± 2 µmol in series [1] (week 0, interval 0–3 h) and 4 ± 1 µmol in series [1] (week 8, interval 0–3 h). For the same compound, the Amount excreted in urine, 3-6 h in series [1] (week 0, interval 3–6 h) came out at 1.1 ± 0.2 µmol; in series [1] (week 8, interval 3–6 h) it was 2.6 ± 0.7 µmol. For the same compound, the Amount excreted in urine, 6-9 h was 4 ± 1 µmol in series [1] (week 0, interval 6–9 h) and 6 ± 2 µmol in series [1] (week 8, interval 6–9 h). The Amount excreted in urine, 9-11 h in series [1] (week 0, interval 9–11 h) stood at 5 ± 1 µmol; in series [1] (week 8, interval 9–11 h), 5 ± 1 µmol. Also, the Amount excreted in urine, 11-24 h in series [1] (week 0, interval 11–24 h) came to 11 ± 2 µmol; in series [1] (week 8, interval 11–24 h), 9 ± 2 µmol. Also, the Amount excreted in urine, 0 h in series [1] (week 8, 0 h (before intake on sampling day)) amounted to 18 ± 5 µmol. Also, the “AUC0–24h” value in series [2] (week 0) is 10 ± 3 µM/min; in series [2] (week 8), 13 ± 3 µM/min. Moreover, the highest concentration (Cmax) was determined as 1100 ± 300 nM in series [2] (setting [3]) and 1300 ± 200 nM in series [2] (setting [5]). In addition, the “Tmax (h) or Range” value amounted to 10.0 ± 0.4 h in series [2] (setting [4]) and 9.2 ± 0.5 h in series [2] (setting [6]).

`O=C(O)CNC(=O)c1ccc(O)cc1` [4′-Hydroxyhippuric acid]: the “Cumulative urinary excretion, Total 0–24 h” value in series [1] (week 0) and in series [1] (week 8) was 14 ± 2 µmol in each case. In addition, the Amount excreted in urine, TOTAL in series [1] (week 0, Table S5 total) stood at 14 ± 2 µmol; in series [1] (week 8, Table S6 total), 14 ± 2 µmol. For the same compound, the Amount excreted in urine, 0- 3 h was found to be 1.3 ± 0.3 µmol in series [1] (week 0, interval 0–3 h) and 1.5 ± 0.3 µmol in series [1] (week 8, interval 0–3 h). The Amount excreted in urine, 3-6 h stood at 0.7 ± 0.1 µmol in series [1] (week 0, interval 3–6 h) and 0.6 ± 0.1 µmol in series [1] (week 8, interval 3–6 h). Also, the Amount excreted in urine, 6-9 h turned out to be 1 ± 0.3 µmol in series [1] (week 0, interval 6–9 h) and 1.2 ± 0.2 µmol in series [1] (week 8, interval 6–9 h). Also, the Amount excreted in urine, 9-11 h was 0.8 ± 0.2 µmol in series [1] (week 0, interval 9–11 h) and 1.1 ± 0.3 µmol in series [1] (week 8, interval 9–11 h). The Amount excreted in urine, 11-24 h in series [1] (week 0, interval 11–24 h) amounted to 3.8 ± 0.9 µmol; in series [1] (week 8, interval 11–24 h) it was 2.8 ± 0.6 µmol. Besides, the “AUC0–24h” value turned out to be 1.2 ± 0.2 µM/min in series [2] (week 0) and 1.3 ± 0.2 µM/min in series [2] (week 8). In addition, the Cmax in series [2] (setting [3]) is 80 ± 10 nM; in series [2] (setting [5]), 90 ± 10 nM. Besides, the “Tmax (h) or Range” value in series [2] (setting [4]) is listed as 12 ± 3 h; in series [2] (setting [6]), 8 ± 2 h.

Turning to `O=C(O)Cc1ccc(O)cc1` [4′-Hydroxyphenylacetic acid], the “AUC0–24h” value in series [2] (week 0) turned out to be 2 ± 1 µM/min; in series [2] (week 8) it was 36 ± 23 µM/min. Also, the Cmax worked out at 2000 ± 1000 nM in series [2] (setting [3]) and 7000 ± 3000 nM in series [2] (setting [5]). Moreover, the figures for the “Tmax (h) or Range” value in series [2] (setting [4]) and in series [2] (setting [6]) were 2 ± 2 h and 0.6 ± 0.1 h, respectively.

Take `O=C(O)C=Cc1ccc(OC2OC(C(=O)O)C(O)C(O)C2O)cc1` (stereo not shown) [CoA-4′-glucuronide, Cinnamic acid-4′-glucuronide]: the results for the “AUC0–24h” value in series [2] (week 0) and in series [2] (week 8) were 0.72 ± 0.08 µM/min and 0.71 ± 0.07 µM/min, respectively. The maximum concentration (Cmax) in series [2] (setting [3]) was 39 ± 2 nM; in series [2] (setting [5]) it was 38 ± 2 nM. In addition, the “Tmax, second peak” value in series [2] (week 0, biphasic profile) is 7.0 ± 0.9 h; in series [2] (week 8, biphasic profile), 9 ± 2 h. Moreover, the “Tmax (h) or Range” value in series [2] (setting [4]) was 1.4 ± 0.3 h; in series [2] (setting [6]), 2.1 ± 0.2 h.

Take `O=C(O)/C=C/c1ccc(OS(=O)(=O)O)cc1` [CoA-4′-sulfate, Cinnamic acid-4′-sulfate]: the “AUC0–24h” value in series [2] (week 0) is 0.2 ± 0.2 µM/min; in series [2] (week 8), 0.4 ± 0.2 µM/min. The Cmax in series [2] (setting [3]) was 20 ± 20 nM; in series [2] (setting [5]) it was 30 ± 10 nM. The “Tmax, second peak” value in series [2] (week 0, biphasic profile) is given as 6 ± 3 h; in series [2] (week 8, biphasic profile), 11 ± 3 h. Also, the “Tmax (h) or Range” value in series [2] (setting [4]) amounted to 1.7 ± 0.9 h.

By Cmax is commonly meant the highest concentration seen after dosing.
